Measurements published in patent publication US5648455A, “Antibiotic WAP-8294A, method for preparing the same and antibacterial composition” (Wakamoto Pharmaceutical Co., Ltd., priority 1994, dated 1997).
Converted amounts (≈) assume the structure as drawn. Numbered stars: 1 amine (or outer) side, 2 acyl side, 3 side chain; on linkers, the order of the positions; unused ones are H or OH. Bridge positions count the residues as written; N and C are the ends. Square brackets hold non-standard residues; d marks the D form. Peptide text beside a SMILES is read from it. ξ: configuration not given here. ξAsn(3ξ-OH) = NC(=O)C(O)C(N)C(=O)O; X2 = CC(C)CCCC(CC(=O)[*:1])O[*:2]; NMeF = CN[CH](Cc1ccccc1)C(=O)O; X1 = CCCCCC(CC(=O)[*:1])O[*:2]; NMeV = CN[CH](C(=O)O)C(C)C; Orn = NCCC[CH](N)C(=O)O

Assays:
[1] = tested on: Staphylococcus aureus JCM8702 (a clinically isolated strain of MRSA); assay: Protective effect against experimental systemic MRSA infection in mice; assay type: in vivo, ICR-MCH mice; settings: dose 10 mg/kg, once subcutaneously one hour after infection
Procedure: The experiments were carried out by intra-peritoneally administering 0.5 mg/0.5 ml/mouse of cyclophosphamide to ICR-MCH mice [4-week-old male mice (available from Nippon CLEA Co., Ltd.), 8 animals per group] 3 days before the infection and then infecting the animals through intra-peritoneal administration of 0.5 ml each of a liquid containing 2×10^4 /ml of Staphylococcus aureus JCM8702 strain supplemented with 5% mucin. One hour after the infection, 10 mg/kg of Vancomycin HCl (available from Shionogi & Co., Ltd.) and 0.2 ml/mouse of the antibiotic WAP-8294AX (containing 10 mg/kg, 2.5 mg/kg, 1.0 mg/kg or 0.5 mg/kg of the antibiotic) was once subcutaneously injected to mice. To control groups, there was subcutaneously administered 0.2 ml each of physiological saline.

[2] = tested on: Staphylococcus aureus No. 1 (a clinically isolated strain of MRSA); assay: as above; assay type: in vivo, ICR-MCH mice; settings: dose 10 mg/kg, once subcutaneously one hour after infection
Procedure: The experiments were carried out by intra-peritoneally administering 0.5 mg/0.5 ml/mouse of cyclophosphamide to ICR-MCH mice [4-week-old male mice (available from Nippon CLEA Co., Ltd.), 8 animals per group] 3 days before the infection and then infecting the animals through intra-peritoneal administration of 0.5 ml each of a liquid containing 2×10^6 /ml of Staphylococcus aureus No. 1 strain supplemented with 5% mucin. One hour after the infection, 10 mg/kg of Vancomycin HCl (available from Shionogi & Co., Ltd.) and 0.2 ml/mouse of the antibiotic WAP-8294A (containing 10 mg/kg, 5 mg/kg, 2.5 mg/kg, 1.0 mg/kg, 0.5 mg/kg, 0.25 mg/kg, 0.1 mg/kg or 0.05 mg/kg of the antibiotic) was once subcutaneously injected to mice. To control groups, there was subcutaneously administered 0.2 ml each of physiological saline.

Solubility = assay type: physicochemical; settings: solvents
[3] = tested on: Staphylococcus aureus 371 R (MRSA clinically isolated strain); assay: MIC, broth dilution, sensitive bouillon medium; assay type: cell-based
Procedure: (§1) The determination of the minimum inhibitory concentration (MIC) was carried out by broth dilution method which made use of a sensitive bouillon medium (available from Eiken Chemical Co., Ltd.).

[4] = tested on: Staphylococcus aureus (ATCC 25923); assay: MIC, broth dilution, sensitive bouillon medium; assay type: cell-based
Procedure: as §1

[5] = tested on: Bacillus subtilis (ATCC 6633); assay: MIC, broth dilution, sensitive bouillon medium; assay type: cell-based
Procedure: as §1

[6] = tested on: Streptococcus pyogenes (ATCC 19615); assay: MIC, broth dilution, sensitive bouillon medium; assay type: cell-based
Procedure: as §1

[7] = tested on: Escherichia coli (ATCC 25922); assay: MIC, broth dilution, sensitive bouillon medium; assay type: cell-based
Procedure: as §1

[8] = tested on: Candida albicans (TIMM 0239); assay: MIC, broth dilution, sensitive bouillon medium; assay type: cell-based
Procedure: as §1

[9] = tested on: Staphylococcus aureus No. 11 (MRSA clinically isolated strain); assay: MIC, broth dilution, sensitive bouillon medium; assay type: cell-based
Procedure: as §1

[10] = tested on: Staphylococcus aureus No. 1 (MRSA clinically isolated strain); assay: MIC, broth dilution, sensitive bouillon medium; assay type: cell-based
Procedure: as §1

[11] = tested on: Pseudomonas aeruginosa (ATCC 9027); assay: MIC, broth dilution, sensitive bouillon medium; assay type: cell-based
Procedure: as §1

[12] = tested on: Staphylococcus epidermidis (ATCC 12228); assay: MIC, broth dilution, sensitive bouillon medium; assay type: cell-based
Procedure: as §1

[13] = tested on: Aspergillus fumigatus (IAM 2004); assay: MIC, broth dilution, sensitive bouillon medium; assay type: cell-based
Procedure: as §1

[14] = tested on: Gram-positive bacteria including MRSA (methicillin-resistant Staphylococcus aureus); assay: Antibacterial activity, summary of Table 4; assay type: cell-based; settings: for increase of antibacterial activity when 10% bovine serum is added to the culture medium: relative to culture medium without serum; for antibacterial activity against Gram-positive bacteria including MRSA: sensitive bouillon medium, Table 4
Procedure: as §1

[15] = Addition of Serum: 10% (bovine serum)

| SMILES | Solubility (Solubility) | MIC [3, 15] [µg/mL] | MIC ([3]; Addition of Serum: None) [µg/mL] | MIC [4, 15] [µg/mL] | MIC ([4]; Addition of Serum: None) [µg/mL] | MIC [5, 15] [µg/mL] | MIC ([5]; Addition of Serum: None) [µg/mL] | MIC [6, 15] [µg/mL] | MIC ([6]; Addition of Serum: None) [µg/mL] | MIC [7, 15] [µg/mL] | MIC ([7]; Addition of Serum: None) [µg/mL] | MIC [8, 15] [µg/mL] | MIC ([8]; Addition of Serum: None) [µg/mL] | MIC [9, 15] [µg/mL] | MIC ([9]; Addition of Serum: None) [µg/mL] | MIC [10, 15] [µg/mL] | MIC ([10]; Addition of Serum: None) [µg/mL] | MIC [11, 15] [µg/mL] | MIC ([11]; Addition of Serum: None) [µg/mL] | MIC [12, 15] [µg/mL] | also measured |
| --- | --- | --- | --- | --- | --- | --- | --- | --- | --- | --- | --- | --- | --- | --- | --- | --- | --- | --- | --- | --- | --- |
| CN[C@H](CC(C)C)C(=O)N[C@H]1C(=O)N[C@@H](CC(N)=O)C(=O)N[C@H]2C(=O)N[C@H]3C(=O)N[C@H](C(=O)N[C@H](C(=O)O)c4cc(O)cc(O)c4-c4cc3ccc4O)[C@H](O)c3ccc(c(Cl)c3)Oc3cc2cc(c3O[C@@H]2O[C@H](CO)[C@@H](O)[C@H](O)[C@H]2O[C@H]2C[C@](C)(N)[C@H](O)[C@H](C)O2)Oc2ccc(cc2Cl)[C@H]1O [Vancomycin] |  |  |  |  |  |  |  |  |  |  |  |  |  |  |  |  |  |  |  |  | Survival/No. of Test Animals [1]: 5/8; Survival/No. of Test Animals [2]: 5/8 |
| CC(C)CCCC1CC(=O)NC(CO)C(=O)NC(C(O)C(N)=O)C(=O)NC(CO)C(=O)NCC(=O)N(C)C(Cc2ccccc2)C(=O)NC(CC(C)C)C(=O)NC(CCCN)C(=O)NC(CCC(=O)O)C(=O)NC(CC(N)=O)C(=O)NC(Cc2c[nH]c3ccccc23)C(=O)NC(CCCN)C(=O)N(C)C(C(C)C)C(=O)O1 (stereo not shown) [WAP-8294A2] (S[ξAsn(3ξ-OH)]SG[NMeF]L[Orn]ENW[Orn][NMeV]; linker N-C via X2; configuration not given here) | soluble in water, methanol, n-butanol, dimethylformamide and dimethylsulfoxide and insoluble in acetone, ethyl acetate and chloroform | < 0.10 | 0.78 (≈ 0.499 µM) | < 0.10 | 0.78 (≈ 0.499 µM) | < 0.10 | 0.78 (≈ 0.499 µM) | 25 (≈ 16 µM) | 6.25 (≈ 4 µM) | > 100 | > 100 | > 100 | > 100 | < 0.10 | 0.78 (≈ 0.499 µM) | < 0.10 | 0.78 (≈ 0.499 µM) | > 100 | > 100 | < 0.10 | MIC ([12]; Addition of Serum: None): 0.78 µg/mL (≈ 0.499 µM); MIC [13, 15]: > 100 µg/mL; MIC ([13]; Addition of Serum: None): > 100 µg/mL; increase of antibacterial activity when 10% bovine serum is added to the culture medium [14]: not less than 8 times; antibacterial activity against Gram-positive bacteria including MRSA [14]: strong antibacterial activity |
| CCCCCC1CC(=O)NC(CO)C(=O)NC(C(O)C(N)=O)C(=O)NC(CO)C(=O)NCC(=O)N(C)C(Cc2ccccc2)C(=O)NC(CC(C)C)C(=O)NC(CCCN)C(=O)NC(CCC(=O)O)C(=O)NC(CC(N)=O)C(=O)NC(Cc2c[nH]c3ccccc23)C(=O)NC(CCCN)C(=O)N(C)C(C(C)C)C(=O)O1 (stereo not shown) [WAP-8294A1] (S[ξAsn(3ξ-OH)]SG[NMeF]L[Orn]ENW[Orn][NMeV]; linker N-C via X1; configuration not given here) | soluble in water, methanol, n-butanol, dimethylformamide and dimethylsulfoxide and insoluble in acetone, ethyl acetate and chloroform | < 0.10 | 0.39 (≈ 0.252 µM) | < 0.10 | 0.39 (≈ 0.252 µM) | < 0.10 | 0.39 (≈ 0.252 µM) | 25 (≈ 16.1 µM) | 6.25 (≈ 4.04 µM) | > 100 | > 100 | > 100 | > 100 | < 0.10 | 0.39 (≈ 0.252 µM) | < 0.10 | 0.39 (≈ 0.252 µM) | > 100 | > 100 | < 0.10 | MIC ([12]; Addition of Serum: None): 0.39 µg/mL (≈ 0.252 µM); MIC [13, 15]: > 100 µg/mL; MIC ([13]; Addition of Serum: None): > 100 µg/mL; increase of antibacterial activity when 10% bovine serum is added to the culture medium [14]: not less than 8 times; antibacterial activity against Gram-positive bacteria including MRSA [14]: strong antibacterial activity |
